In publication PMC4728423, “Natural and synthetic flavonoid modulation of TRPC5 channels” (British Journal of Pharmacology, 2016):

Columns and labels:
[1] = molecular target: T1, TRPV4 channels (Homo sapiens, UniProt Q9HBA0); experiment: 4alphaPDD-evoked Ca2+ entry in CHO K1 cells expressing TRPV4; type: cell-based; settings: 10 μM compound, 1 μM 4αPDD, fluo-4
T1 construct: expressed in transfected cells

[2] = molecular target: T2, TRPC1-TRPC5 heteromeric channels (Homo sapiens, UniProt P48995+Q9UL62); experiment: Whole-cell recordings of TRPC1-TRPC5 heteromeric channels stimulated by (-)-Englerin A; type: cell-based; settings: 5 μM compound, 100 nM (-)-Englerin A
T2 construct: expressed in transfected cells; host or cells: HEK 293-MSR, transient, Lipofectamine 2000

[3] = molecular target: T3, human TRPC5 (Homo sapiens, UniProt Q9UL62); experiment: S1P- or LPC-evoked Ca2+ entry in TRPC5 (Tet+) HEK 293 cells; type: cell-based; settings: 10 μM compound, fura-2
T3 construct: expressed in transfected cells
T3 sequence (Q9UL62 1-973): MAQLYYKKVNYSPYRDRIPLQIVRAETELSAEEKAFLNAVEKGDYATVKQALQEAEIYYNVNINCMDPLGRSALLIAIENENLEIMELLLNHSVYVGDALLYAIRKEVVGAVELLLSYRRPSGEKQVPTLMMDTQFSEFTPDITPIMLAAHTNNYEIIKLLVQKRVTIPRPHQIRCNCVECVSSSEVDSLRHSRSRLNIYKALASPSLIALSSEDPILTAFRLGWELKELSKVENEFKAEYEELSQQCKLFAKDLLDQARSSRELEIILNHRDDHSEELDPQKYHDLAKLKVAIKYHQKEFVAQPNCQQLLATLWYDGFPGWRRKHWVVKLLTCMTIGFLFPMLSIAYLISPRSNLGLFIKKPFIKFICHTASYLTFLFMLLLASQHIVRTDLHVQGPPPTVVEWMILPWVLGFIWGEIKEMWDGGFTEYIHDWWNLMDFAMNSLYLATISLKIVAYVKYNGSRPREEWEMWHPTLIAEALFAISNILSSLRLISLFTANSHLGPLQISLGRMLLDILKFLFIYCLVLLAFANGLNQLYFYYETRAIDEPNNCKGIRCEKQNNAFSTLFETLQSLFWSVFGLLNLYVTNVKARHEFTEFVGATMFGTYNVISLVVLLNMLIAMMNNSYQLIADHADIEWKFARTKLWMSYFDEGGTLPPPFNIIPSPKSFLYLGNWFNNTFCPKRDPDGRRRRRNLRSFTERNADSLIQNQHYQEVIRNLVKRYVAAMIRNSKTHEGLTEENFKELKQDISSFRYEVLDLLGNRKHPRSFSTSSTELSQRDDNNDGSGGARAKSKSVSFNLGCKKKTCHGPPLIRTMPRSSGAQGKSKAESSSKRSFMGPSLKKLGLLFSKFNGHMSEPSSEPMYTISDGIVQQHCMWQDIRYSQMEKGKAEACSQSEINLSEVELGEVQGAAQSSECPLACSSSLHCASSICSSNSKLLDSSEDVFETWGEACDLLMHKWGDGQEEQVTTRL

[4] = test system: endogenous Ca2+ entry mechanism; experiment: Ca2+ responses in control non-induced (Tet-) HEK cells with extracellular Ca2+; type: cell-based, human; settings: 10 μM compound
[5] = molecular target: T3, human TRPC5; experiment: Outside-out patch recordings from TRPC5 Tet+ cells; type: cell-based; settings: outside-out patch, (-)-Englerin A-activated TRPC5
[6] = molecular target: T3, human TRPC5; experiment: Gd3+-evoked Ca2+ entry in TRPC5-expressing (Tet+) HEK 293 cells; type: cell-based
[7] = molecular target: T4, TRPC4 (Homo sapiens, UniProt Q9UBN4); experiment: Outside-out patch recordings from TRPC4 Tet+ cells stimulated by (-)-Englerin A; type: cell-based; settings: 5 μM compound, 100 nM (-)-Englerin A
T4 construct: expressed in transfected cells
T4 sequence (Q9UBN4 1-893 isoform Q9UBN4-2): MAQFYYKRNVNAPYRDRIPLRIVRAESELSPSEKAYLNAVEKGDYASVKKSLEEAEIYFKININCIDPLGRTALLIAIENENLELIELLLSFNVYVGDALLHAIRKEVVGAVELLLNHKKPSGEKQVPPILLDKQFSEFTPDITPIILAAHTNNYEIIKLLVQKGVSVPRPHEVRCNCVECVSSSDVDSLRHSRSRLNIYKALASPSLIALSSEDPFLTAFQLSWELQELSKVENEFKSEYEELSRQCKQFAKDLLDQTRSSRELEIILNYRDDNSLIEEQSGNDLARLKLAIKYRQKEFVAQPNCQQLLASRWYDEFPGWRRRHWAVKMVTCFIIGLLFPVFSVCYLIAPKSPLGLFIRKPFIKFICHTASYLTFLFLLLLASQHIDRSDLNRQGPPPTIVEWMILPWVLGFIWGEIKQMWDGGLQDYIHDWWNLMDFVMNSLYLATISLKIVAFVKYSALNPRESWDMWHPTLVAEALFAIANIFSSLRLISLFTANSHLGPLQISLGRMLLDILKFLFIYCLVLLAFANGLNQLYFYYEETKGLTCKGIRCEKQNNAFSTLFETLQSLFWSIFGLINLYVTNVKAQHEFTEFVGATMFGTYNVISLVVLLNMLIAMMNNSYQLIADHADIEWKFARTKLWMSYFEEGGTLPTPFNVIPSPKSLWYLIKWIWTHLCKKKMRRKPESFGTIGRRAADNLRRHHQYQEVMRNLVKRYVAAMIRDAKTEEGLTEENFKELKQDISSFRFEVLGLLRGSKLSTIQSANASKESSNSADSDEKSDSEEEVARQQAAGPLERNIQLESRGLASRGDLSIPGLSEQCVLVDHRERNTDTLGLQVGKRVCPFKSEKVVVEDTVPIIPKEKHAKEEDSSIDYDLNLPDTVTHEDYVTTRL

[8] = molecular target: T5, TRPM2 channels (Homo sapiens, UniProt O94759); experiment: H2O2-evoked Ca2+ entry in cells overexpressing TRPM2; type: cell-based; settings: 10 μM compound, 1 mM H2O2, fura-2
T5 construct: expressed in transfected cells

[9] = molecular target: T6, TRPC3 channels (Homo sapiens, UniProt Q13507); experiment: OAG-evoked Ca2+ entry in cells overexpressing TRPC3; type: cell-based; settings: 10 μM compound, 50 μM OAG, fura-2
T6 construct: expressed in transfected cells
T6 sequence (Q13507 74-921 limits assumed): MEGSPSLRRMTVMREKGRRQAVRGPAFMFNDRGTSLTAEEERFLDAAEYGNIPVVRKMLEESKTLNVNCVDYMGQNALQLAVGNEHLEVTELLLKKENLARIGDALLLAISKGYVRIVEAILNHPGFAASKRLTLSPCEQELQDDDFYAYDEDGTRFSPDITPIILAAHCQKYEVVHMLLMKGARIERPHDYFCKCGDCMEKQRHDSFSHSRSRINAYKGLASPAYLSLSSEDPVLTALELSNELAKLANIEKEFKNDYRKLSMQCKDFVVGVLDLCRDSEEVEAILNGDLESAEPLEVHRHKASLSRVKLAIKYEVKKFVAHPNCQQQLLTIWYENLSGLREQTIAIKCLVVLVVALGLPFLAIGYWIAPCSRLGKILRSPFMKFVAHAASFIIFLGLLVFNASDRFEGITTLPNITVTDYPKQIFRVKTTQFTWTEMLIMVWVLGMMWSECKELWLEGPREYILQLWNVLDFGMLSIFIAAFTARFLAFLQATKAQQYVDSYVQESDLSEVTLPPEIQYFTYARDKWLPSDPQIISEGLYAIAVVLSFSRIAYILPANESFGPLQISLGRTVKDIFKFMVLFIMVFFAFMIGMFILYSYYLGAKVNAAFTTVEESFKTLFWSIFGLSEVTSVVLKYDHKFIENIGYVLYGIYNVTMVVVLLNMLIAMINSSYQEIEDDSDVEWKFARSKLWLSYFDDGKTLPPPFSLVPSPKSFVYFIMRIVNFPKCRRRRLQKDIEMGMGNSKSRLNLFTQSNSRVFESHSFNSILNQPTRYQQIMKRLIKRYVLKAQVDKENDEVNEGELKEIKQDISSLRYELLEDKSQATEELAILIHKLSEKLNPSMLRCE

[10] = test system: endogenous Ca2+ release signal; experiment: Endogenous Ca2+ release in non-induced (Tet-) TRPC5 HEK cells; type: cell-based, human; settings: 10 μM compound, no extracellular Ca2+
[11] = test system: GABA-evoked ionic currents; set-up: method as in Goutman et al., 2003; settings: ref Goutman et al., 2003; cited from earlier work
[12] = molecular target: T3, human TRPC5; experiment: Whole-cell patch clamp of TRPC5-expressing (Tet+) HEK 293 cells; type: cell-based; settings: 10 μM compound
[13] = test system: TRPV4 channels; set-up: method as in Ma et al., 2012; settings: ref Ma et al., 2012; cited from earlier work
[14] = test system: TRPC5; set-up: method as in Wong et al., 2010; settings: ref Wong et al., 2010; cited from earlier work
[15] = test system: 3T3-L1 cells; settings: ref Harmon and Harp, 2001; cited from earlier work

T2 sequence (P48995 whole entry, one chain of several): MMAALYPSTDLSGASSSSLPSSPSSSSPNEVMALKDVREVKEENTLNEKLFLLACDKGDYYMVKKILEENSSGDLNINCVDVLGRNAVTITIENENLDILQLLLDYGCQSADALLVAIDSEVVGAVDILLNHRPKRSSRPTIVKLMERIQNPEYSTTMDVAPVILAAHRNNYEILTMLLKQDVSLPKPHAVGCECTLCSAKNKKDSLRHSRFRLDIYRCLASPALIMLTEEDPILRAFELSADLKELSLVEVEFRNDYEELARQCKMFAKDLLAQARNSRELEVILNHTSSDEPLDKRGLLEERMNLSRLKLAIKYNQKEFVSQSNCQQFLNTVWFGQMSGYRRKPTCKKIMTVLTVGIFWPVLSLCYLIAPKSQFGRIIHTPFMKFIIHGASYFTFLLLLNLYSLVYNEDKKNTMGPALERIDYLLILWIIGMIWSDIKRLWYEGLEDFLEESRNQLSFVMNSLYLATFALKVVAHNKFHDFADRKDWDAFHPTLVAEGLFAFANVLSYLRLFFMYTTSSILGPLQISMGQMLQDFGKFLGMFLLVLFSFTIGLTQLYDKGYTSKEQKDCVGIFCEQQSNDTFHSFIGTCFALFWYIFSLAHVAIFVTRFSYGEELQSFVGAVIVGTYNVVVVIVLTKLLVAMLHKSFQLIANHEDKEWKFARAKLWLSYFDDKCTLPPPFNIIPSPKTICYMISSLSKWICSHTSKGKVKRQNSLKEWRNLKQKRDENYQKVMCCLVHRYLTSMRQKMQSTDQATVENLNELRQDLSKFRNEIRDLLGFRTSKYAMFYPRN
T5 sequence (O94759 whole entry): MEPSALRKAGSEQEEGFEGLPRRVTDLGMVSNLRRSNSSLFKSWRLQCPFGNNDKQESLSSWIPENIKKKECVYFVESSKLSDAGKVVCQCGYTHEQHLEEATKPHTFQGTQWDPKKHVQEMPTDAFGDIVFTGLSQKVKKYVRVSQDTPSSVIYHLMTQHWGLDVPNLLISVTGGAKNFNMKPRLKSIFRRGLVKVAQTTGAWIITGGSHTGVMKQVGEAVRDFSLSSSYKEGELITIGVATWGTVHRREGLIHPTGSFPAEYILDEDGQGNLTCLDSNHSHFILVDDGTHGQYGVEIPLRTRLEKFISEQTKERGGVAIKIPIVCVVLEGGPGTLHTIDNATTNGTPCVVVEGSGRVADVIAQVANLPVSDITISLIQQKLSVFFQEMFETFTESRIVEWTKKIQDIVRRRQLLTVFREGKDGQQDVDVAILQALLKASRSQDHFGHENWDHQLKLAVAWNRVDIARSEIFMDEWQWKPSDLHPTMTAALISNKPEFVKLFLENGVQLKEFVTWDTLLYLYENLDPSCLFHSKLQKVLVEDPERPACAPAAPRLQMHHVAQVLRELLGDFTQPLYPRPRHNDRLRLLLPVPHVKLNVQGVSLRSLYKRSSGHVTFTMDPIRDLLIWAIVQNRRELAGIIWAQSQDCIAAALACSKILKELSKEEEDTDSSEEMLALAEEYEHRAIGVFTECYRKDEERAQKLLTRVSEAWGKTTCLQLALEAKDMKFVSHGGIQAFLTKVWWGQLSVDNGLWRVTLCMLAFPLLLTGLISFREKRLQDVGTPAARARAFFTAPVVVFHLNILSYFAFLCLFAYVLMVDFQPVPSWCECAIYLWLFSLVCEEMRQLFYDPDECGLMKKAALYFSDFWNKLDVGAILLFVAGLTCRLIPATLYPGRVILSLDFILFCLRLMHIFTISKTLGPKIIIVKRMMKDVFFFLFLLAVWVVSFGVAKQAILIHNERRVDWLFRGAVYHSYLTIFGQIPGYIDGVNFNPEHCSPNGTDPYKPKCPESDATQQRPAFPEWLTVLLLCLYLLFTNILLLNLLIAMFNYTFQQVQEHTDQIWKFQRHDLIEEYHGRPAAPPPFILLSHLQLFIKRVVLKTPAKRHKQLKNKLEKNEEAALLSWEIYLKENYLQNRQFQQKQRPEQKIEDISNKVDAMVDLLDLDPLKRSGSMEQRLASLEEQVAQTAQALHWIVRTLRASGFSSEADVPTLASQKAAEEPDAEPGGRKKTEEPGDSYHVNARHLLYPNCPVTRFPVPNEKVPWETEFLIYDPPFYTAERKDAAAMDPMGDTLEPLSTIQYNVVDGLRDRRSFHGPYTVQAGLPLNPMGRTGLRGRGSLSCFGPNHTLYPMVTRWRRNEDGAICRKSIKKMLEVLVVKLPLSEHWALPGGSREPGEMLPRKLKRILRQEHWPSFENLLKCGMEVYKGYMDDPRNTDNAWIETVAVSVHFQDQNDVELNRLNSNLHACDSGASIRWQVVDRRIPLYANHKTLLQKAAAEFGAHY
T1 sequence (Q9HBA0 whole entry): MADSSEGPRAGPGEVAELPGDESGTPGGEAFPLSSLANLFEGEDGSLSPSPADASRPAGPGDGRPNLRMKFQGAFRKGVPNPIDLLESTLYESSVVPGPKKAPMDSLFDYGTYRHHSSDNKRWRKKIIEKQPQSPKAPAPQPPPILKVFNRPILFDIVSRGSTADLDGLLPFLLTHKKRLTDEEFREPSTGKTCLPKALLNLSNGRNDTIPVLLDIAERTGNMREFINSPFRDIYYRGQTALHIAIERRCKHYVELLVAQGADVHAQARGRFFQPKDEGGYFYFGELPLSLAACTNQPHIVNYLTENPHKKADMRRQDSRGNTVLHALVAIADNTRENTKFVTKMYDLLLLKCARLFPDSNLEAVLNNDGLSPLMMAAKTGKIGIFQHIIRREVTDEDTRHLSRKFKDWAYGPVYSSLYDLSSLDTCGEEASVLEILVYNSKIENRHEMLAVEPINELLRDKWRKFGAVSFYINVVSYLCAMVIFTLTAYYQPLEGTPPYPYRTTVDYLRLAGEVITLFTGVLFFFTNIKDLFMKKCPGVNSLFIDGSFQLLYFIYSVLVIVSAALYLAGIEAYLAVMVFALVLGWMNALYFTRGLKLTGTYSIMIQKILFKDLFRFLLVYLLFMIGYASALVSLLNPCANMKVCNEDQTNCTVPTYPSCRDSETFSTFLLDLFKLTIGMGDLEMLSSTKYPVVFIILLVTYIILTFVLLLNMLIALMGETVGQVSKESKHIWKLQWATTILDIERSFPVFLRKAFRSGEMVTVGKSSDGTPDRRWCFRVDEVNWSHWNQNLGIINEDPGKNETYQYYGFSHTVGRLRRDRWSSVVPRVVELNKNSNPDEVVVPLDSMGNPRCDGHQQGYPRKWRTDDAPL

O=c1c(O)c(-c2ccccc2Br)oc2cc(O)cc(O)c12 [AM12, 3,5,7‐trihydroxy‐2‐(2‐bromophenyl)‐4H‐chromen‐4‐one]
effect on Ca2+ entry through TRPV4 channels [1]: significant stimulatory effect
inhibition of TRPC1-TRPC5 heteromeric channel current [2]: ~ 20%
effect on S1P-evoked Ca2+ entry ([3]; 5 μM S1P): stimulated rather than inhibited
effect on LPC-evoked Ca2+ entry ([3]; 10 μM LPC): enhanced
effect on S1P and LPC responses in Tet- cells [4]: no effects
effect on ATP response in the presence of extracellular Ca2+ ([4]; 100 μM ATP): enhanced
recovery on washout [5]: fast recovery on washout
IC50 ([6]; TRPC5 (Tet+) HEK 293, Gd3+, fura-2, read-out: IC50, inhibition of Gd3+-evoked Ca2+ entry): 280 nM
average inhibition of TRPC4 current [7]: ~ 80%
effect on TRPM2 channels [8]: no effect
effect on Ca2+ entry through TRPC3 channels [9]: did not reach statistical significance
effect on Ca2+ release evoked by thapsigargin ([10]; 3 μM thapsigargin): no effect
effect on Ca2+ release evoked by ATP ([10]; 100 μM ATP): no effect

O=c1cc(-c2ccc(O)cc2)oc2cc(O)cc(O)c12 [Apigenin]
effect on GABA-evoked ionic currents [11]: inhibited
effect on TRPC5-mediated whole-cell current (no other activator) [12]: stimulate
effect on Gd3+-evoked Ca2+ entry (natural flavonoid screen) ([6]; 10 μM, 50 μM Gd3+, XRhod-1): stimulatory effect
effect on TRPV4 channels [13]: stimulating

O=c1c(-c2ccc(O)cc2)coc2cc(O)cc(O)c12 [genistein]
effect on TRPC5 [14]: stimulated
effect on 3T3-L1 cell proliferation and differentiation [15]: inhibited proliferation and subsequent differentiation
